Here are results for three compounds from PubChem BioAssay AID1259407 (Chemical Carcinogenesis Research Information System (CCRIS), 2018).

Active and inactive are the calls of the source. How the calls were made is not given here.

In the data set the test system is CCRIS mutagenicity, Ames/micronucleus/aberration tests. Nature of the data set: CCRIS mutagenicity studies.
The mark [1] stands for this setting: Test System: AMES SALMONELLA TYPHIMURIUM, Strain/Indicator: TA100, Metabolic Activation: NONE, Method: PREINCUBATION

Take `F`: the mutagenic call by setting is: (End Point: IN VIVO MICRONUCLEUS, Test System: BONE MARROW POLYCHROMATIC ERYTHROCYTES, Species: MOUSE, Strain/Sex: DDY/MALE, Route: IP) “inactive; negative”; (Test System: AMES SALMONELLA TYPHIMURIUM, Strain/Indicator: TA97A, Metabolic Activation: NONE, Method: STANDARD PLATE) “inactive; negative”; (Test System: AMES SALMONELLA TYPHIMURIUM, Strain/Indicator: TA97A, Metabolic Activation: RAT, LIVER, S-9, AROCLOR 1254, Method: STANDARD PLATE) “inactive; negative”; (Test System: AMES SALMONELLA TYPHIMURIUM, Strain/Indicator: TA98, Metabolic Activation: HAMSTER, LIVER, S-9, AROCLOR 1254 (10%), Method: PREINCUBATION) “inactive; negative”; (Test System: AMES SALMONELLA TYPHIMURIUM, Strain/Indicator: TA98, Metabolic Activation: NONE, Method: FLUCTUATION TEST) “inactive; negative”; (Test System: AMES SALMONELLA TYPHIMURIUM, Strain/Indicator: TA98, Metabolic Activation: NONE, Method: PREINCUBATION) “inactive; negative”. The mutagenic call is, setting by setting: (Test System: AMES SALMONELLA TYPHIMURIUM, Strain/Indicator: TA98, Metabolic Activation: NONE, Method: STANDARD PLATE) “inactive; negative”; (Test System: AMES SALMONELLA TYPHIMURIUM, Strain/Indicator: TA98, Metabolic Activation: RAT, LIVER, S-9, AROCLOR 1254 (10%), Method: PREINCUBATION) “inactive; negative”; (Test System: AMES SALMONELLA TYPHIMURIUM, Strain/Indicator: TA98, Metabolic Activation: RAT, LIVER, S-9, AROCLOR 1254, Method: STANDARD PLATE) “inactive; negative”; (Test System: AMES SALMONELLA TYPHIMURIUM, Strain/Indicator: TA98, Metabolic Activation: RAT, LIVER, S-9, AROCLOR, Method: PREINCUBATION) “inactive; negative”; (Test System: AMES SALMONELLA TYPHIMURIUM, Strain/Indicator: TA98, Metabolic Activation: RAT, LIVER, S-9, PCB, Method: FLUCTUATION TEST) “inactive; negative”; (Test System: AMES SALMONELLA TYPHIMURIUM, Strain/Indicator: TA98, Metabolic Activation: RAT, LIVER, S-9, PCB, Method: STANDARD PLATE) “inactive; negative”. Also, the mutagenic call (Test System: AMES SALMONELLA TYPHIMURIUM, Strain/Indicator: TA98, Metabolic Activation: RAT, LIVER, S-9, PHENOBARBITAL, Method: STANDARD PLATE) was “inactive; negative”; the mutagenic call (Test System: AMES SALMONELLA TYPHIMURIUM, Strain/Indicator: TA100, Metabolic Activation: HAMSTER, LIVER, S-9, AROCLOR 1254 (10%), Method: PREINCUBATION) is “inactive; negative”; the mutagenic call (Test System: AMES SALMONELLA TYPHIMURIUM, Strain/Indicator: TA100, Metabolic Activation: NONE, Method: FLUCTUATION TEST) was “inactive; negative”; the mutagenic call under setting [1] was “inactive; negative”; the mutagenic call (Test System: AMES SALMONELLA TYPHIMURIUM, Strain/Indicator: TA100, Metabolic Activation: NONE, Method: STANDARD PLATE) was “inactive; negative”; the mutagenic call (Test System: AMES SALMONELLA TYPHIMURIUM, Strain/Indicator: TA100, Metabolic Activation: RAT, LIVER, S-9, AROCLOR 1254 (10%), Method: PREINCUBATION) is “inactive; negative”. The mutagenic call was “inactive; negative” (Test System: AMES SALMONELLA TYPHIMURIUM, Strain/Indicator: TA100, Metabolic Activation: RAT, LIVER, S-9, AROCLOR 1254, Method: STANDARD PLATE); “inactive; negative” (Test System: AMES SALMONELLA TYPHIMURIUM, Strain/Indicator: TA100, Metabolic Activation: RAT, LIVER, S-9, AROCLOR, Method: PREINCUBATION); “inactive; negative” (Test System: AMES SALMONELLA TYPHIMURIUM, Strain/Indicator: TA100, Metabolic Activation: RAT, LIVER, S-9, PCB, Method: FLUCTUATION TEST); “inactive; negative” (Test System: AMES SALMONELLA TYPHIMURIUM, Strain/Indicator: TA100, Metabolic Activation: RAT, LIVER, S-9, PCB, Method: STANDARD PLATE); “inactive; negative” (Test System: AMES SALMONELLA TYPHIMURIUM, Strain/Indicator: TA100, Metabolic Activation: RAT, LIVER, S-9, PHENOBARBITAL, Method: STANDARD PLATE); “inactive; negative” (Test System: AMES SALMONELLA TYPHIMURIUM, Strain/Indicator: TA102, Metabolic Activation: NONE, Method: STANDARD PLATE). Besides, the mutagenic call is, setting by setting: (Test System: AMES SALMONELLA TYPHIMURIUM, Strain/Indicator: TA102, Metabolic Activation: RAT, LIVER, S-9, AROCLOR 1254, Method: STANDARD PLATE) “inactive; negative”; (Test System: AMES SALMONELLA TYPHIMURIUM, Strain/Indicator: TA1535, Metabolic Activation: HAMSTER, LIVER, S-9, AROCLOR 1254 (10%), Method: PREINCUBATION) “inactive; negative”; (Test System: AMES SALMONELLA TYPHIMURIUM, Strain/Indicator: TA1535, Metabolic Activation: NONE, Method: PREINCUBATION) “inactive; negative”; (Test System: AMES SALMONELLA TYPHIMURIUM, Strain/Indicator: TA1535, Metabolic Activation: NONE, Method: STANDARD PLATE) “inactive; negative”; (Test System: AMES SALMONELLA TYPHIMURIUM, Strain/Indicator: TA1535, Metabolic Activation: RAT, LIVER, S-9, AROCLOR 1254 (10%), Method: PREINCUBATION) “inactive; negative”; (Test System: AMES SALMONELLA TYPHIMURIUM, Strain/Indicator: TA1535, Metabolic Activation: RAT, LIVER, S-9, AROCLOR 1254, Method: STANDARD PLATE) “inactive; negative”. Also, the mutagenic call by setting is: (Test System: AMES SALMONELLA TYPHIMURIUM, Strain/Indicator: TA1535, Metabolic Activation: RAT, LIVER, S-9, AROCLOR, Method: PREINCUBATION) “inactive; negative”; (Test System: AMES SALMONELLA TYPHIMURIUM, Strain/Indicator: TA1537, Metabolic Activation: HAMSTER, LIVER, S-9, AROCLOR 1254 (10%), Method: PREINCUBATION) “inactive; negative”; (Test System: AMES SALMONELLA TYPHIMURIUM, Strain/Indicator: TA1537, Metabolic Activation: NONE, Method: PREINCUBATION) “inactive; negative”; (Test System: AMES SALMONELLA TYPHIMURIUM, Strain/Indicator: TA1537, Metabolic Activation: RAT, LIVER, S-9, AROCLOR 1254 (10%), Method: PREINCUBATION) “inactive; negative”; (Test System: AMES SALMONELLA TYPHIMURIUM, Strain/Indicator: TA1537, Metabolic Activation: RAT, LIVER, S-9, AROCLOR, Method: PREINCUBATION) “inactive; negative”; (Test System: AMES SALMONELLA TYPHIMURIUM, Strain/Indicator: TA1538, Metabolic Activation: NONE, Method: PREINCUBATION) “inactive; negative”. In addition, the mutagenic call reads like this: (Test System: AMES SALMONELLA TYPHIMURIUM, Strain/Indicator: TA1538, Metabolic Activation: RAT, LIVER, S-9, AROCLOR, Method: PREINCUBATION) “inactive; negative”; (Test System: CHINESE HAMSTER OVARY, Strain/Indicator: CHO-K1-BH4 (HGPRT), Metabolic Activation: NONE, Method: SUSPENSION/PLATE) “inactive; negative”; (Test System: CHINESE HAMSTER OVARY, Strain/Indicator: CHO-K1-BH4 (HGPRT), Metabolic Activation: RAT, LIVER, S-9, AROCLOR, Method: SUSPENSION/PLATE) “inactive; negative”; (Test System: CHINESE HAMSTER V-79, Strain/Indicator: V-79 (HGPRT)/6-THIOGUANINE, Metabolic Activation: NONE) “inactive; negative”; (Test System: CHINESE HAMSTER V-79, Strain/Indicator: V-79/6-THIOGUANINE, Metabolic Activation: NONE) “inactive; negative”; (Test System: E.COLI, Strain/Indicator: WP2 UVRA, Metabolic Activation: NONE, Method: FLUCTUATION TEST) “inactive; negative”. Further, the mutagenic call by setting is: (Test System: E.COLI, Strain/Indicator: WP2 UVRA, Metabolic Activation: RAT, LIVER, S-9, PCB, Method: FLUCTUATION TEST) “inactive; negative”; (Test System: MOUSE LYMPHOMA, Strain/Indicator: L5178Y (TK+/TK-), Metabolic Activation: NONE, Method: SUSPENSION/PLATE) “active; positive”; (Test System: MOUSE LYMPHOMA, Strain/Indicator: L5178Y (TK+/TK-), Metabolic Activation: RAT, LIVER, S-9, AROCLOR 1254, Method: SUSPENSION/PLATE) “active; positive”.

Regarding `O=C(N=c1sn(C(=O)c2ccc([N+](=O)[O-])cc2)c2ccc(Cl)cc12)c1ccc([N+](=O)[O-])cc1`, where the note is “Test System: AMES SALMONELLA TYPHIMURIUM, Strain/Indicator: TA100, Metabolic Activation: S-9, Method: STANDARD PLATE”, the mutagenic call was “active; positive”.

With `CC1(c2ccc(-c3ccccc3)cc2)CO1` (configuration not stated), under setting [1], the mutagenic call is “active; positive”.
